# Data taken from EP1058559B1, “COMBINATION OF A SELECTIVE NMDA NR2B ANTAGONIST AND A COX-2 INHIBITOR” (MERCK SHARP & DOHME LTD., priority 1998, dated 1999).
# Assays:
# [1] = system: mechanical allodynia induced by sciatic nerve ligation; test: sciatic nerve ligation assay of neuropathic pain (mechanical allodynia, modified Randall-Selitto algesiometer); assay type: in vivo, male Sprague Dawley rats; conditions: result in words; given 1 h before the test
# Procedure: (§1) The present Example examined whether NMDA NR2B receptor antagonists have an improved therapeutic window over unselective NNIDA/glycine antagonists and other ion channel blockers including lamotrigine and gabapentin, by comparing their anti-algesic effects with their liability to induce motor impairment in rats. Anti-algesic activity was assessed using an assay of neuropathic pain in rats (sciatic nerve ligation) and in a carrageenan-induced hyperalgesia assay. Motor impairment was measured using an accelerating rotarod.
# (§2) For sciatic nerve ligation, male Sprague Dawley rats (180-220g) were anaesthetised with isofluorane, the left sciatic nerve exposed and 4 chromic catgut (4.0) ligatures were tied loosely around the nerve (spaced 1-2 mm apart) immediately proximal to the point of trifurcation. In shamoperated animals, the same dissection was performed but without ligation. Responses to mechanical pressure were assessed 7 days after ligation using a modified Randall-Selitto algesiometer in which constant force of […] was applied to the hind paw and the latency to struggle was recorded as the reaction time. Mechanical allodynia was defined as the difference in reaction time for sham and ligature rats. Reaction times for drug treated rats were expressed as a percentage of this response. Compounds were administered 1 h before the test. In the carrageenan-induced hyperalgesia assay, male Sprague Dawley rats (100-120 g) received an intraplantar injection of carrageenan (4.5 mg) and mechanical thresholds were determined 3 h later using a modified Ugo Basile Algesiometer. Control rats received saline (0.15 ml i.pl.). Hyperalgesia was defined as the difference in vocalisation threshold for saline- and carrageenan-injected rats. Paw pressure scores for drug-treated rats were expressed as a percentage of this response. Compounds were administered 2 h after carrageenan. To determine the effects of the compounds on motor co-ordination, male Sprague Dawley rats (160-180 g) were first trained to remain for 120 s on the rotarod apparatus revolving at 12 r.p.m. on the morning before the test. Animals then received drug treatments and 1 h later were placed on an accelerating rotarod (increasing from 4 - 40 r.p.m. during a 5 min period) and the time the rats were able to remain on the rotarod recorded. Lamotrigine, gabapentin and (±)-CP-101,606 were suspended in 0.5% methocel and administered orally (1 ml/kg). Ifenprodil, L-701,324, L-687,414 and (±)-Ro25-6981 were dissolved or suspended in 0.5% methocel and administered intraperitoneally (1 ml/kg). MK-801 was dissolved in distilled water and given i.p. (1 ml/kg). Doses of compounds refer to the free base.
# motor co-ordination = test: accelerating rotarod (motor co-ordination) with observed behaviour; assay type: in vivo, male Sprague Dawley rats; conditions: for ID50 Motor Impairment Rat Rotarod: male, Sprague Dawley, in vivo, ip, 1 h
# Procedure: as §1, §2
# To determine the effects of morphine and (±)-Ro25-6981 on motor co-ordination, male Sprague Dawley rats (160-180 g) were first trained to remain for 120 s on the rotarod apparatus revolving at. 12 r.p.m. on the morning before the test. Animals then received drug treatments and 1 h later were placed on an accelerating rotarod (increasing from 4 - 40 r.p.m. during a 5 min period) and the time the rats were able to remain on the rotarod recorded.
# [2] = system: mechanical hyperalgesia induced by carrageenan; test: carrageenan-induced hyperalgesia assay (mechanical thresholds, modified Ugo Basile Algesiometer); assay type: in vivo, male Sprague Dawley rats; conditions: for inhibition of hyperalgesia: alone, Figure 2
# Procedure: as §1
# For sciatic nerve ligation, male Sprague Dawley rats (180-220g) were anaesthetised with isofluorane, the left sciatic nerve exposed and 4 chromic catgut (4.0) ligatures were tied loosely around the nerve (spaced 1-2 mm apart) immediately proximal to the point of trifurcation. In shamoperated animals, the same dissection was performed but without ligation. Responses to mechanical pressure were assessed 7 days after ligation using a modified Randall-Selitto algesiometer in which constant force of […] was applied to the hind paw and the latency to struggle was recorded as the reaction time. […] Reaction times for drug treated rats were expressed as a percentage of this response. […] In the carrageenan-induced hyperalgesia assay, male Sprague Dawley rats (100-120 g) received an intraplantar injection of carrageenan (4.5 mg) and mechanical thresholds were determined 3 h later using a modified Ugo Basile Algesiometer. […] Paw pressure scores for drug-treated rats were expressed as a percentage of this response. […] Animals then received drug treatments and 1 h later were placed on an accelerating rotarod (increasing from 4 - 40 r.p.m. during a 5 min period) and the time the rats were able to remain on the rotarod recorded. […]
# Mate Sprague Dawley rats (100-120 g) received an intraplantar injection of carrageenan (4.5 mg) and mechanical thresholds were determined 3 h later using a modified Ugo Basile Algesiometer. […] Paw pressure scores for drug-treated rats were expressed as a percentage of this response. […]
# [3] = at doses showing no behavioural abnormality; cited from earlier work
molecule,measurement,setting,value
C[C@@H](CN1CCC(Cc2ccccc2)CC1)[C@@H](O)c1ccc(O)cc1 (racemic) [(±)-Ro25-6981],reversal of mechanical allodynia induced by sciatic nerve ligation,[1],dose-dependently reversed mechanical allodynia
same,ID50 Motor Impairment Rat Rotarod,motor co-ordination,≥100 mg/kg
same,reversal of mechanical hyperalgesia induced by carrageenan,"[2]; 10 and 30 mg/kg i.p., Figure 1",dose-dependent reversal of mechanical hyperalgesia
NCC1(CC(=O)O)CCCCC1 [Gabapentin],reversal of mechanical allodynia induced by sciatic nerve ligation,[1],reversed mchanical allodynia
same,motor impairments observed,motor co-ordination; doses of 30-300 mg/kg,motor impairments (ataxia)
CC(C(O)c1ccc(O)cc1)N1CCC(Cc2ccccc2)CC1 (centres unmarked) [Ifenprodil],reversal of mechanical allodynia induced by sciatic nerve ligation,[1],reversed mchanical allodynia
same,ID50 Motor Impairment Rat Rotarod,motor co-ordination,≥50 mg/kg
"C[C@@H]1CN(O)C(=O)[C@@H]1N [L-687,414]",reversal of mechanical allodynia induced by sciatic nerve ligation,[1],dose-dependently reversed mechanical allodynia
"O=c1[nH]c2cc(Cl)ccc2c(O)c1-c1cccc(Oc2ccccc2)c1 [L-701,324]",reversal of mechanical allodynia induced by sciatic nerve ligation,[1],dose-dependently reversed mechanical allodynia
same,behavioural effects observed,motor co-ordination; 10 and 30 mg/kg i.p.,ataxia
"CS(=O)(=O)Nc1cc2c(cc1Sc1ccc(F)cc1F)C(=O)CC2 [L-745,337]",inhibition of hyperalgesia,[2]; 3 mg/kg p.o.,75%
same,inhibition of hyperalgesia,"[2]; 0.3-3 mg/kg p.o., result in words",dose-dependent inhibition of hyperalgesia
Nc1nnc(-c2cccc(Cl)c2Cl)c(N)n1 [Lamotrigine],reversal of mechanical allodynia induced by sciatic nerve ligation,[1],reversed mchanical allodynia
C[C@]12N[C@H](Cc3ccccc31)c1ccccc12 [MK-801],reversal of mechanical allodynia induced by sciatic nerve ligation,[1],dose-dependently reversed mechanical allodynia
same,behavioural effects observed,motor co-ordination; 0.3 and 1 mg/kg doses (i.p.),"Body rolling, and head weaving"
"(±)-CP-101,606",reversal of mechanical allodynia induced by sciatic nerve ligation,[1],dose-dependently reversed mechanical allodynia
same,analgesic activity,[3],Potent analgesic activity
